# BindingDB's records for doi:10.7270/Q2V1236D (Burnham Center For Chemical Genomics, 2009)
# Target: his6-Siah1 (aa 81-282) (Homo sapiens, UniProt Q8IUQ4)
# Assay: inhibitors of Siah-1 ligand interaction – biochemical, TR-FRET, dose response (AID 2141)
# Chain of his6-Siah1 (aa 81-282) (Q8IUQ4 whole entry, looked up, the tested form may be a part): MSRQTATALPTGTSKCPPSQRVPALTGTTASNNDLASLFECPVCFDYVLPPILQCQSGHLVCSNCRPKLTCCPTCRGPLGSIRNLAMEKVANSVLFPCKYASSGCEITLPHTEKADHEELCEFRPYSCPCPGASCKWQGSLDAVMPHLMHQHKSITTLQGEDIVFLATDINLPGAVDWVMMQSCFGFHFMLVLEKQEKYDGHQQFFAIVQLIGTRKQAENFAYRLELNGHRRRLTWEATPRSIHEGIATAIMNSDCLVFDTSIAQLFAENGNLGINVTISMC
row,SMILES,IC50 [µM]
1,C[N+]1(CCNC(=O)CN=O)CCCCC1,130
2,"CC(C)(C)c1cc(-c2cs/c(=N\c3ccccc3)n2Cc2ccc(C(=O)O)cc2)cc(C(C)(C)C)c1O [4-[[4-(3,5-ditert-butyl-4-oxidanyl-phenyl)-2-phenylazanyl-1,3-thiazol-3-ium-3-yl]methyl]benzoic acid;bromide]",6.69
3,"CC1(C)OC(C)(C)C(=CNc2ccc(O)cc2)C1=O [4-[(4-hydroxyanilino)methylene]-2,2,5,5-tetramethyldihydro-3(2H)-furanone]",2.93

# Next, values leading:
row,IC50 [µM],SMILES
1,50.7,CCOC(=O)C1(C)CC(=Nc2ccc(O)cc2)C(=O)N1c1ccc(O)cc1 (stereo not given)
2,4.27,"O=C(Nc1ccc(Br)cc1)c1ccc(-n2c(O)c3c(c2O)CC=CC3)cc1 [4-[1,3-bis(oxidanylidene)-3a,4,7,7a-tetrahydroisoindol-2-yl]-N-(4-bromophenyl)benzamide]"
